Measurements from US5952321A, “Substituted azetidinones as anti-inflammatory and antidegenerative agents” (Merck & Co., Inc., priority 1996, dated 1999).

These compounds were tested against T1, Human Polymorphonuclear Leukocyte Elastase (Homo sapiens, UniProt P08246) (assay: Inhibition of human polymorphonuclear leukocyte elastase via hydrolysis of Boc-AAPAN or Boc-AAPVN). Settings: pH 7.5, Table I; second order rate constant for inactivation of the enzyme; read-out: Kobs /[I].
T1 sequence (P08246 30-267): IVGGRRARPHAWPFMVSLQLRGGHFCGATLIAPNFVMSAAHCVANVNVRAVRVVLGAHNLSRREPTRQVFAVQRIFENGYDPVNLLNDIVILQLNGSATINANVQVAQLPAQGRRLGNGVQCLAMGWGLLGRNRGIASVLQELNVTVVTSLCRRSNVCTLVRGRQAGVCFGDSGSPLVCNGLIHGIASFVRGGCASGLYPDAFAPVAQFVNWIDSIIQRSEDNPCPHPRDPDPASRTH
Format: biochemical
Description: Enzyme Assays for the Inhibition of Human Polymorphonuclear Leukocyte Elastase Via Hydrolysis of N-t-Boc-alanyl-alanyl-prolylalanine-p-nitroanilide (Boc-AAPAN) or […] (Boc-AAPVN) Reagent:
0.05M TES (N-tris[hydroxymethyl]methyl-2-amino-ethanesulfonic acid) Buffer, pH 7.5.
0.2 mM Boc-AAPAN or Boc-AAPVN.
To prepare substrate, the solid was first dissolved in 10.0 ml DMSO. Buffer at pH 7.5 was then added to a final volume of 100 ml.
Crude extract of human polymorphonuclear leukocytes (PMN) containing elastase activity.
Inhibitors (azetidinones) to be tested dissolved in DMSO just before use.
To 1.0 ml of 0.2 mM Boc-AAPAN in a cuvette, 0.01-0.1 ml of DMSO with or without inhibitor was added. After mixing, a measurement was taken at 410 mμ to detect any spontaneous hydrolysis due to presence of test compound. 0.05 Milliliters of PMN extract was then added and the ΔOD/min at 410 mμ was measured and recorded. Beckman model 35 spectrophotometer was used.
Results in Tables I to III were reported as ID50, effective dosage in micrograms per milliliter (μg/ml) for 50% inhibition of the enzyme activity 2 minutes after zero time.
Results were also expressed as Ki, the micromolar concentration of the inhibitor (μM) giving 50% of the control enzyme activity; or as ^k obs/I which is the second order rate constant in per mole per second for inactivation of the enzyme.
The elastase activity in the crude PMN extract may vary from one preparation to another. A control of each new batch is run, and the volume added in the assay procedure is adjusted according to activity.

Point of comparison: `CCC[C@@H](NC(=O)N1C(=O)C(CC)(CC)[C@@H]1Oc1ccc(C(COC)N2CCCC2)cc1)c1ccc(C)cc1` (mixture of isomers) [R4+R5=--CH2 CH2 CH2 CH2 --; R6=CH2 OMe, 3,3-Diethyl-1-[(R)-α-(n-propyl)-4-(methyl)benzylaminocarbonyl]-4-(S)-[4-{1-(RS)-(1-pyrrolidino)-2-methoxyethyl}phenoxy]azetidin-2-one], kinact/KI 1.7e+06 M⁻¹ s⁻¹. Against it:
- CCC[C@@H](NC(=O)N1C(=O)C(CC)(CC)[C@@H]1Oc1ccc(CN(C)CC[S+]([O-])CC)cc1)c1ccc(C)cc1 (stereo partly drawn) [R4=Me; R5=CH2 CH2 SOEt; R6=H, (4S)-3,3-Diethyl-1-[(R)-α-n-propyl-(4-methyl)benzylaminocarbonyl]-4-[(4-((2-thioethyl)ethyl)methylaminomethyl)phenoxy]azetidin-2-one, S-oxide] — within 1.5-fold, 1.4e+06 M⁻¹ s⁻¹
- CCC[C@@H](NC(=O)N1C(=O)C(CC)(CC)[C@@H]1Oc1ccc(CN(C)CCOCC)cc1)c1ccc(C)cc1 [R4=Me; R5=CH2 CH2 OEt; R6=H, (4S)-3,3-Diethyl-1-[(R)-α-n-propyl-(4-methyl)benzylaminocarbonyl]-4-[(4-(2-ethoxyethyl)methylaminomethyl)phenoxy]azetidin-2-one] — 2.8-fold lower, 600000 M⁻¹ s⁻¹
- CCC[C@@H](NC(=O)N1C(=O)C(CC)(CC)[C@@H]1Oc1ccc(CN2CCC(O)C2)cc1)c1ccc(C)cc1 (some centres unmarked) [R4+R5=--CH2 CH2 CH(OH)CH2 --; R6=H] — within 1.5-fold, 1.2e+06 M⁻¹ s⁻¹
- CCC[C@@H](NC(=O)N1C(=O)C(CC)(CC)[C@@H]1Oc1ccc(C(COC)N(CC)CC)cc1)c1ccc(C)cc1 (mixture of isomers) [R4=Et; R5=Et; R6=CH2 OMe, 3,3-Diethyl-1-[(R)-α-(n-propyl)-4-(methyl)benzylaminocarbonyl]-4-(S)-[4-{1-(RS)-(N,N-diethylamino)-2-methoxyethyl}phenoxy]azetidin-2-one] — 1.5-fold lower, 1.1e+06 M⁻¹ s⁻¹
- CCC[C@@H](NC(=O)N1C(=O)C(CC)(CC)[C@@H]1Oc1ccc(CN2CCSCC2)cc1)c1ccc(C)cc1 [R4+R5=--CH2 CH2 SCH2 CH2 --; R6=H] — 1.9-fold lower, 915000 M⁻¹ s⁻¹
- CCC[C@@H](NC(=O)N1C(=O)C(CC)(CC)[C@@H]1Oc1ccc(CN(C)CCOc2ccccc2)cc1)c1ccc(C)cc1 [R4=Me; R5=CH2 CH2 OPh; R6=H] — 2.3-fold lower, 750000 M⁻¹ s⁻¹
- CCC[C@@H](NC(=O)N1C(=O)C(CC)(CC)[C@@H]1Oc1ccc(CN(C)CCC(=O)N(C)C)cc1)c1ccc(C)cc1 [R4=Me; R5=CH2 CH2 CONMe2; R6=H] — 2-fold lower, 870000 M⁻¹ s⁻¹
- CCC[C@@H](NC(=O)N1C(=O)C(CC)(CC)[C@@H]1Oc1ccc(CN(C)CCOC(=O)C(C)C)cc1)c1ccc(C)cc1 [R4=Me; R5=CH2 CH2 OCOCHMe2; R6=H] — 2.7-fold lower, 630000 M⁻¹ s⁻¹
- CCC[C@@H](NC(=O)N1C(=O)C(CC)(CC)[C@@H]1Oc1ccc(CNC(=O)Cc2cccnc2)cc1)c1ccc(C)cc1 [R4=H; R5=COCH2-3-pyridyl; R6=H, (4S)-3,3-Diethyl-1-[(R)-α-(n-propyl)-4-(methyl)benzylaminocarbonyl]-4-[(4-((3-pyridyl)methylcarbonyl)aminomethyl)phenoxy]azetidin-2-one] — within 1.5-fold, 1.25e+06 M⁻¹ s⁻¹
- CCC[C@@H](NC(=O)N1C(=O)C(CC)(CC)[C@@H]1Oc1ccc(CN(C)CCN(C)C(C)=O)cc1)c1ccc(C)cc1 [R4=Me; R5=CH2 CH2 N(Me)Ac; R6=H] — 2.6-fold lower, 650000 M⁻¹ s⁻¹
- CCC[C@@H](NC(=O)N1C(=O)C(CC)(CC)[C@@H]1Oc1ccc(CN(C)CCOC(=O)NC(C)C)cc1)c1ccc(C)cc1 [R4=Me; R5=CH2 CH2 OCONH(i-Pr); R6=H] — within 1.5-fold, 1.85e+06 M⁻¹ s⁻¹
- CCC[C@@H](NC(=O)N1C(=O)C(CC)(CC)[C@@H]1Oc1ccc(CN(C)CC2CCCCO2)cc1)c1ccc(C)cc1 (some centres unmarked) — 1.9-fold lower, 900000 M⁻¹ s⁻¹
- CCC[C@@H](NC(=O)N1C(=O)C(CC)(CC)[C@@H]1Oc1ccc(CN2CCC(O)CC2)cc1)c1ccc(C)cc1 [R4+R5=--CH2 CH2 CH(OH)CH2 CH2 --; R6=H] — within 1.5-fold, 1.15e+06 M⁻¹ s⁻¹
- CCC[C@@H](NC(=O)N1C(=O)C(CC)(CC)[C@@H]1Oc1ccc(CN(C)C)cc1)c1ccc(C)cc1 [R4=Me; R5=Me; R6=H] — 3-fold lower, 560000 M⁻¹ s⁻¹
- CCC[C@@H](NC(=O)N1C(=O)C(CC)(CC)[C@@H]1Oc1ccc(CN(CC)CCSC)cc1)c1ccc(C)cc1 [R4=Et; R5=CH2 CH2 SMe; R6=H] — 2.5-fold lower, 690000 M⁻¹ s⁻¹
- CCC[C@@H](NC(=O)N1C(=O)C(CC)(CC)[C@@H]1Oc1ccc(CNC(C)=O)cc1)c1ccc(C)cc1 [R4=H; R5=Ac; R6=H, (4S)-3,3-Diethyl-1-[(R)-α-(n-propyl)-4-(methyl)benzylaminocarbonyl]-4-[(4-(N-acetyl)aminomethyl)phenoxy]azetidin-2-one] — 2.3-fold lower, 750000 M⁻¹ s⁻¹
- CCC[C@@H](NC(=O)N1C(=O)C(CC)(CC)[C@@H]1Oc1ccc(C(C)N(C)CCO)cc1)c1ccc(C)cc1 (some centres unmarked) [R4=Me; R5=CH2 CH2 OH; R6=Me] — 2.2-fold lower, 770000 M⁻¹ s⁻¹
- CCC[C@@H](NC(=O)N1C(=O)C(CC)(CC)[C@@H]1Oc1ccc(CN(CC)CCOC)cc1)c1ccc(C)cc1 [R4=Et; R5=CH2 CH2 OMe; R6=H, (4S)-3,3-Diethyl-1-[(R)-α-n-propyl-(4-methyl)benzyl-aminocarbonyl]-4-[(4-(2-methoxyethyl)ethylamino-methyl)phenoxy]azetidin-2-one] — 3-fold lower, 565000 M⁻¹ s⁻¹
- CCC[C@@H](NC(=O)N1C(=O)C(CC)(CC)[C@@H]1Oc1ccc(CN)cc1)c1ccc(C)cc1 [R4=H; R5=H; R6=H, (4S)-3,3-Diethyl-1-[(R)-α-(n-propyl)-4-(methyl)benzylaminocarbonyl]-4-[(4-aminomethyl)phenoxy]azetidin-2-one] — 5.2-fold lower, 325000 M⁻¹ s⁻¹
- CCCNC(=O)NCc1ccc(O[C@@H]2N(C(=O)N[C@H](CCC)c3ccc(C)cc3)C(=O)C2(CC)CC)cc1 [R4=H; R5=CONHnPr; R6=H, (4S)-3,3-Diethyl-1-[(R)-α-(n-propyl)-4-(methyl)benzylaminocarbonyl]-4-[(4-((N-propyl)aminocarbonyl)aminomethyl)phenoxy]azetidin-2-one] — within 1.5-fold, 1.2e+06 M⁻¹ s⁻¹
- CCC[C@@H](NC(=O)N1C(=O)C(CC)(CC)[C@@H]1Oc1ccc(CN(C)CCOC(=O)NC)cc1)c1ccc(C)cc1 [R4=Me; R5=CH2 CH2 OCONHMe; R6=H] — 2.4-fold lower, 700000 M⁻¹ s⁻¹
- CCC[C@@H](NC(=O)N1C(=O)C(CC)(CC)[C@@H]1Oc1ccc(C(C)N(C)CCOC)cc1)c1ccc(C)cc1 (stereo partly drawn) [R4=Me; R5=CH2 CH2 OMe; R6=Me, (4S)-3,3-Diethyl-1-[(R)-α-n-propyl-(4-methyl)benzylaminocarbonyl]-4-[(R,S)-4-((1-(2-methoxyethyl)methylamino)ethyl)phenoxy]azetidin-2-one] — 2.8-fold lower, 600000 M⁻¹ s⁻¹

Same assay, conditions: pH 7.5, Table II; second order rate constant for inactivation of the enzyme; read-out: Kobs /[I]

Point of comparison: `CCC[C@@H](NC(=O)N1C(=O)C(CC)(CC)[C@@H]1Oc1ccc(CCN(C)CCN(C)C)cc1)c1ccc(C)cc1` [R4=Me; R5=CH2 CH2 NMe2; n=2, (4S)-3,3-Diethyl-1-[(R)-α-n-propyl-(4-methyl)benzylaminocarbonyl]-4-[(4-(2-((2-dimethylamino)ethyl)methylamino)ethyl)phenoxy]azetidin-2-one], kinact/KI 1.2e+06 M⁻¹ s⁻¹. Against it:
- CCC[C@@H](NC(=O)N1C(=O)C(CC)(CC)[C@@H]1Oc1ccc(CCN2CCOCC2)cc1)c1ccc(C)cc1 [R4+R5=--CH2 CH2 OCH2 CH2 --; n=2, (4S)-3,3-Diethyl-1-[(R)-α-n-propyl-(4-methyl)benzylaminocarbonyl]-4-[(4-(2-(4-morpholino))ethyl)phenoxy]azetidin-2-one] — 2-fold lower, 600000 M⁻¹ s⁻¹
- CCC[C@@H](NC(=O)N1C(=O)C(CC)(CC)[C@@H]1Oc1ccc(CCN(C)C)cc1)c1ccc(C)cc1 [R4=Me; R5=Me; n=2, (4S)-3,3-Diethyl-1-[(R)-α-n-propyl-(4-methyl)benzylaminocarbonyl]-4-[(4-(2-dimethylamino)ethyl)phenoxy]azetidin-2-one] — within 1.5-fold, 1.13e+06 M⁻¹ s⁻¹
- CCC[C@@H](NC(=O)N1C(=O)C(CC)(CC)[C@@H]1Oc1ccc(CCCCN(C)C)cc1)c1ccc(C)cc1 [R4=Me; R5=Me; n=4] — 2.3-fold lower, 525000 M⁻¹ s⁻¹
- CCC[C@@H](NC(=O)N1C(=O)C(CC)(CC)[C@@H]1Oc1ccc(CCCCN(C)Cc2ccccc2)cc1)c1ccc(C)cc1 [R4=Me; R5=Bn; n=4] — 1.9-fold lower, 640000 M⁻¹ s⁻¹

Same assay, conditions: pH 7.5, Table III; second order rate constant for inactivation of the enzyme; read-out: Kobs /[I]

Point of comparison: `CCC[C@@H](NC(=O)N1C(=O)C(CC)(CC)[C@@H]1Oc1ccc(CNC2CC2)cc1)c1ccc2c(c1)OCO2`, kinact/KI 1.6e+06 M⁻¹ s⁻¹. Against it:
- CCC[C@@H](NC(=O)N1C(=O)C(CC)(CC)[C@@H]1Oc1ccc(C(COC)N(C)C)cc1)c1ccc2c(c1)OCO2 (mixture of isomers) [3,3-Diethyl-1-[(R)-α-(n-propyl)-(3,4-dioxomethylene)benzylaminocarbonyl]-4-(S)-[4-{1-(RS)-(N,N-dimethylamino)-2-methoxyethyl}phenoxy]azetidin-2-one] — within 1.5-fold, 1.9e+06 M⁻¹ s⁻¹
- CCC[C@@H](NC(=O)N1C(=O)C(CC)(CC)[C@@H]1Oc1ccc(CN(C)C(C)COC)c(Cl)c1)c1ccc(C)cc1 (some centres unmarked) — 2.5-fold lower, 650000 M⁻¹ s⁻¹
- CCC[C@@H](NC(=O)N1C(=O)C(CC)(CC)[C@@H]1Oc1ccc(CN(C)CCOC)cc1)c1ccc(OCC)cc1 — within 1.5-fold, 1.3e+06 M⁻¹ s⁻¹
